Experiments:
Assay type in all cases: in vivo
Kochia (Kochia scoparia) [1] = test: Test A preemergence; settings: Bassia scoparia, pre-emergence, 240 h
Procedure, shortened: (§1)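 Visual injury, scored on a 0–100 scale relative to untreated controls, was recorded about 10 d after application. Treatments were a preemergence soil spray over planted seeds or a postemergence spray on plants at the one- to two-leaf stage, 2 to 10 cm tall, all in loam soil–sand blend in the greenhouse.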

[2] = test system: barnyardgrass (Echinochloa crus-galli); test: Test A preemergence; settings: Echinochloa crus-galli, pre-emergence, 240 h
Procedure, shortened: as §1

[3] = test system: giant foxtail (Setaria faberii); test: Test A preemergence; settings: Setaria faberi, pre-emergence, 240 h
Procedure, shortened: as §1

[4] = test system: pigweed (Amaranthus retroflexus); test: Test A preemergence; settings: Amaranthus retroflexus, pre-emergence, 240 h
[5] = test system: ragweed (common ragweed, Ambrosia elatior); test: Test A preemergence; settings: Ambrosia artemisiifolia, pre-emergence, 240 h
Procedure, shortened: as §1

[6] = test system: ryegrass, Italian (Italian ryegrass, Lolium multiflorum); test: Test A preemergence; settings: Lolium multiflorum, pre-emergence, 240 h
Procedure, shortened: as §1

[7] = test system: Galium (catchweed bedstraw, Galium aparine); test: Test A postemergence; settings: Galium, post-emergence, 240 h, 125 g ai/ha, Postemergence; visual injury after approximately 10 d; 0 to 100 scale where 0 is no effect and 100 is complete control; read-out: Plant response rating, Galium
Procedure, shortened: as §1

Kochia (Kochia scoparia) [8] = test: Test A postemergence; settings: Bassia scoparia, post-emergence, 240 h, 125 g ai/ha, Postemergence; visual injury after approximately 10 d; 0 to 100 scale where 0 is no effect and 100 is complete control; read-out: Plant response rating, Kochia
Procedure, shortened: as §1

[9] = test system: barnyardgrass (Echinochloa crus-galli); test: Test A postemergence; settings: Echinochloa crus-galli, post-emergence, 240 h, 125 g ai/ha, Postemergence; visual injury after approximately 10 d; 0 to 100 scale where 0 is no effect and 100 is complete control; read-out: Plant response rating, Barnyardgrass
Procedure, shortened: as §1

[10] = test system: blackgrass (Alopecurus myosuroides); test: Test A postemergence; settings: Alopecurus myosuroides, post-emergence, 240 h, 125 g ai/ha, Postemergence; visual injury after approximately 10 d; 0 to 100 scale where 0 is no effect and 100 is complete control; read-out: Plant response rating, Blackgrass
Procedure, shortened: as §1

corn (Zea mays) = test: Test A postemergence; settings: Zea mays, post-emergence, 240 h, 125 g ai/ha, Postemergence; visual injury after approximately 10 d; 0 to 100 scale where 0 is no effect and 100 is complete control
Procedure, shortened: as §1

[11] = test system: giant foxtail (Setaria faberii); test: Test A postemergence; settings: Setaria faberi, post-emergence, 240 h, 125 g ai/ha, Postemergence; visual injury after approximately 10 d; 0 to 100 scale where 0 is no effect and 100 is complete control; read-out: Plant response rating, Foxtail, Giant
Procedure, shortened: as §1

[12] = test system: pigweed (Amaranthus retroflexus); test: Test A postemergence; settings: Amaranthus retroflexus, post-emergence, 240 h, 125 g ai/ha, Postemergence; visual injury after approximately 10 d; 0 to 100 scale where 0 is no effect and 100 is complete control; read-out: Plant response rating, Pigweed
Procedure, shortened: as §1

[13] = test system: ragweed (common ragweed, Ambrosia elatior); test: Test A postemergence; settings: Ambrosia artemisiifolia, post-emergence, 240 h, 125 g ai/ha, Postemergence; visual injury after approximately 10 d; 0 to 100 scale where 0 is no effect and 100 is complete control; read-out: Plant response rating, Ragweed
Procedure, shortened: as §1

[14] = test system: ryegrass, Italian (Italian ryegrass, Lolium multiflorum); test: Test A postemergence; settings: Lolium multiflorum, post-emergence, 240 h, 125 g ai/ha, Postemergence; visual injury after approximately 10 d; 0 to 100 scale where 0 is no effect and 100 is complete control; read-out: Plant response rating, Ryegrass, Italian
Procedure, shortened: as §1

[15] = test system: wheat (Triticum aestivum); test: Test A postemergence; settings: Triticum aestivum, post-emergence, 240 h, 125 g ai/ha, Postemergence; visual injury after approximately 10 d; 0 to 100 scale where 0 is no effect and 100 is complete control; read-out: Plant response rating, Wheat
Procedure, shortened: as §1

[16] = test system: barnyardgrass (Echinochloa crus-galli); test: Test B flooded paddy test; settings: Echinochloa crus-galli, Flood, 250 g ai/ha; scale of 0 to 100 where 0 is no effect and 100 is complete control; read-out: Barnyardgrass plant response rating
Procedure, shortened: (§2)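 Visual ratings (0 none to 100 complete control) are relative to untreated plants, taken 13–15 d after treatment in a greenhouse. Test material went straight into floodwater standing 3 cm above the soil, kept constant, on plants at the 2-leaf stage.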

[17] = test system: ducksalad (Heteranthera limosa); test: Test B flooded paddy test; settings: Heteranthera limosa, Flood, 250 g ai/ha; scale of 0 to 100 where 0 is no effect and 100 is complete control; read-out: Ducksalad plant response rating
Procedure, shortened: as §2

rice (Oryra sativa) = test: Test B flooded paddy test; settings: Oryza sativa, Flood, 250 g ai/ha; scale of 0 to 100 where 0 is no effect and 100 is complete control; read-out: Rice plant response rating
Procedure, shortened: as §2

[18] = test system: sedge, umbrella (small-flower umbrella sedge, Cyperus difformis); test: Test B flooded paddy test; settings: Cyperus difformis, Flood, 250 g ai/ha; scale of 0 to 100 where 0 is no effect and 100 is complete control; read-out: Sedge, Umbrella plant response rating
Procedure, shortened: as §2

CCc1cc(CC)cc([C@H]2CNC(=O)[C@@H]2C(=O)Nc2ccccc2C(F)(F)F)c1 [Compound 969]
pest or weed control at 125 g/ha (Kochia (Kochia scoparia) [1]; 125 g ai/ha, Preemergence, visual injury rating after approximately 10 d, read-out: Kochia plant response rating (0 to 100 scale, 0 is no effect, 100 is complete control)): 0% | pest or weed control at 500 g/ha (Kochia (Kochia scoparia) [1]; 500 g ai/ha, preemergence, visual injury rating about 10 d after treatment, 0 to 100 scale (0 no effect, 100 complete control), read-out: Kochia plant response rating): 0% | pest or weed control at 125 g/ha ([2]; 125 g ai/ha, Preemergence, visual injury rating after approximately 10 d, read-out: Barnyardgrass plant response rating (0 to 100 scale, 0 is no effect, 100 is complete control)): 50% | pest or weed control at 500 g/ha ([2]; 500 g ai/ha, preemergence, visual injury rating about 10 d after treatment, 0 to 100 scale (0 no effect, 100 complete control), read-out: Barnyardgrass plant response rating): 80% | pest or weed control at 125 g/ha ([3]; 125 g ai/ha, Preemergence, visual injury rating after approximately 10 d, read-out: Foxtail, Giant plant response rating (0 to 100 scale, 0 is no effect, 100 is complete control)): 90% | pest or weed control at 500 g/ha ([3]; 500 g ai/ha, preemergence, visual injury rating about 10 d after treatment, 0 to 100 scale (0 no effect, 100 complete control), read-out: Foxtail, Giant plant response rating): 90% | pest or weed control at 125 g/ha ([4]; 125 g ai/ha, Preemergence, visual injury rating after approximately 10 d, read-out: Pigweed plant response rating (0 to 100 scale, 0 is no effect, 100 is complete control)): 0% | pest or weed control at 500 g/ha ([4]; 500 g ai/ha, preemergence, visual injury rating about 10 d after treatment, 0 to 100 scale (0 no effect, 100 complete control), read-out: Pigweed plant response rating): 0% | pest or weed control at 125 g/ha ([5]; 125 g ai/ha, Preemergence, visual injury rating after approximately 10 d, read-out: Ragweed plant response rating (0 to 100 scale, 0 is no effect, 100 is complete control)): 0% | pest or weed control at 500 g/ha ([5]; 500 g ai/ha, preemergence, visual injury rating about 10 d after treatment, 0 to 100 scale (0 no effect, 100 complete control), read-out: Ragweed plant response rating): 0% | pest or weed control at 125 g/ha ([6]; 125 g ai/ha, Preemergence, visual injury rating after approximately 10 d, read-out: Ryegrass, Italian plant response rating (0 to 100 scale, 0 is no effect, 100 is complete control)): 40% | pest or weed control at 500 g/ha ([6]; 500 g ai/ha, preemergence, visual injury rating about 10 d after treatment, 0 to 100 scale (0 no effect, 100 complete control), read-out: Ryegrass, Italian plant response rating): 30% | pest or weed control at 125 g/ha [7]: 20% | pest or weed control at 125 g/ha (Kochia (Kochia scoparia) [8]): 0% | pest or weed control at 125 g/ha [9]: 50% | pest or weed control at 125 g/ha [10]: 0% | Corn plant response rating (crop injury, 0 = no effect, 100 = complete kill) at 125 g/ha (corn (Zea mays)): 50% | pest or weed control at 125 g/ha [11]: 50% | pest or weed control at 125 g/ha [12]: 0% | pest or weed control at 125 g/ha [13]: 0% | pest or weed control at 125 g/ha [14]: 20% | plant injury at 125 g/ha [15]: 30% | pest or weed control at 250 g/ha [16]: 0% | pest or weed control at 250 g/ha [17]: 0% | pest or weed control at 250 g/ha (rice (Oryra sativa)): 0% | pest or weed control at 250 g/ha [18]: 0%
